From patent US12558428B2, “Heterobifunctional compounds and their use in treating disease” (Halda Therapeutics OpCo, Inc., priority 2024, dated 2026)

How the values were obtained:
Assay type in all cases: cell-based
[1] = tested on: MCF7 cells (ATCC #HTB-22); assay: Cellular growth inhibition assay, MCF7 cells purchased from ATCC; conditions: Homo sapiens, MCF7, 144 h, Table 8-A; MCF7 cells purchased from ATCC; six days; CellTiter-Glo; read-out: GI50
In short: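 GI50 values come from a four-parameter fit of CellTiter-Glo 2.0 luminescence after six days of compound exposure at 37° C. Seeding density depended on the source: 225 cells/well for ECACC MCF7, 1,500 for ATCC. Medium was RPMI 1640 with 10% FBS and 0.2 U/ml insulin.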

[2] = tested on: T-Rex 293 cells lacking increased expression of estrogen receptor alpha protein; assay: Cellular growth inhibition assay, T-Rex 293 cells, (−) doxycycline; conditions: T-REx-293, 72 h, Table 7-A; T-Rex 293 cells without doxycycline (lacking increased ERα expression); 72 hours; CellTiter-Glo; read-out: (−) Dox GI50
In short: (§1)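 Growth of a doxycycline-inducible ERα T-Rex 293 clone, induced or not with 3 ng/mL doxycycline, was followed for 72 h with test compound in hormone-depleted medium. CellTiter-Glo luminescence gave GI50.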

[3] = tested on: T-Rex 293 cells having increased expression of estrogen receptor alpha protein; assay: Cellular growth inhibition assay, T-Rex 293 cells, (+) doxycycline; conditions: T-REx-293, 72 h, Table 7-A; T-Rex 293 cells with doxycycline (increased ERα expression); 72 hours; CellTiter-Glo; read-out: (+) Dox GI50
In short: as §1

SMILES | GI50 [1] [nM] | GI50 [2] [nM] | GI50 [3] [nM]
Cc1sc2c(c1C)C(c1ccc(N3CCC(O)(CN4CCN(c5ccc([C@@H]6c7ccc(O)cc7CC[C@@H]6c6ccccc6)nn5)CC4)CC3)cc1)=N[C@H](Cc1ncco1)c1nnc(C)n1-2 [III-223] | 500 to 2500 | 500 to 2500 | 500 to 2500
Cc1sc2c(c1C)C(c1ccc(N3CCC(O)(CN4CCN(c5ccc([C@H]6c7ccc(O)cc7CC[C@H]6c6ccccc6)nn5)CC4)CC3)cc1)=N[C@H](Cc1ncco1)c1nnc(C)n1-2 [III-224] | 50 to 500 | > 2500 | > 2500
Cc1sc2c(c1C)C(c1ccc(N3CCC(O)(CN4CCN(c5ccc([C@H]6c7ccc(O)cc7CC[C@H]6c6ccccc6)nn5)CC4)CC3)cc1)=N[C@@H](Cc1ncco1)c1nnc(C)n1-2 [III-225] | 50 to 500 | 50 to 500 | < 50
Cc1sc2c(c1C)C(c1ccc(N3CC4(CCC(F)(CN5CCC(c6ccc([C@@H]7c8ccc(O)cc8CC[C@@H]7c7ccccc7)cc6)CC5)CC4)C3)cc1)=N[C@@H](Cc1ncco1)c1nnc(C)n1-2 [III-227] | 50 to 500 | > 2500 | < 50
Cc1sc2c(c1C)C(c1ccc(C3CCC4(CCN(CN5CC(c6ccc([C@@H]7c8ccc(O)cc8CC[C@@H]7c7ccccc7)cc6)C5)CC4)C3)cc1)=N[C@@H](C)c1nnc(C)n1-2 (stereo partly drawn) [III-228] | 50 to 500 | 500 to 2500 | < 50
Cc1sc2c(c1C)C(c1ccc(N3CC4(CCC(CN5CCC(c6ccc([C@@H]7c8ccc(O)cc8CC[C@@H]7c7ccccc7)cc6)CC5)CC4)C3)cc1)=N[C@@H](C)c1nnc(C)n1-2 [III-229] | 50 to 500 | 500 to 2500 | < 50
Cc1sc2c(c1C)C(c1ccc(N3CC4(CCC(CN5CCN(c6ccc([C@@H]7c8ccc(O)cc8CC[C@@H]7c7ccccc7)cc6)CC5)CC4)C3)cc1)=N[C@@H](C)c1nnc(C)n1-2 [III-230] | 50 to 500 | > 2500 | < 50
Cc1sc2c(c1C)C(c1ccc(N3CCN(CC4CCN(c5ccc([C@@H]6c7ccc(O)cc7CC[C@@H]6c6ccccc6)cc5)CC4)CC3)cc1)=N[C@H](Cc1nccs1)c1nnc(C)n1-2 [III-231] | 500 to 2500 | > 2500 | > 2500
Cc1sc2c(c1C)C(c1ccc(N3CC(C[C@H]4CC[C@H](CN5CC(c6ccc([C@@H]7c8ccc(O)cc8CC[C@@H]7c7ccccc7)cc6)C5)CC4)C3)cc1)=N[C@@H](C)c1nnc(C)n1-2 [III-233] | 50 to 500 | 500 to 2500 | < 50
Cc1sc2c(c1C)C(c1ccc(C3CN(C[C@H]4CC[C@H](CN5CC(c6ccc([C@@H]7c8ccc(O)cc8CC[C@@H]7c7ccccc7)cc6)C5)CC4)C3)cc1)=N[C@@H](C)c1nnc(C)n1-2 [III-234] | 50 to 500 | 500 to 2500 | < 50
Cc1sc2c(c1C)C(c1ccc(N3CCC(O)(CN4CCN(c5cc(F)c([C@H]6c7ccc(O)cc7CC[C@H]6c6ccc(F)cc6)c(F)c5)CC4)CC3)cc1)=N[C@@H](C)c1nnc(C)n1-2 [III-237] | 50 to 500 | 500 to 2500 | 50 to 500
Cc1sc2c(c1C)C(c1ccc(N3CC(CC4(O)CCN(CC5CN(c6ccc([C@H]7c8ccc(O)cc8CC[C@H]7c7ccc(F)cc7)cc6)C5)CC4)C3)cc1)=N[C@@H](C)c1nnc(C)n1-2 [III-238] | 50 to 500 | 500 to 2500 | 50 to 500
Cc1sc2c(c1C)C(c1ccc(N3CCC(O)(CN4CCN(c5cc(F)c([C@@H]6c7ccc(O)cc7CC[C@@H]6c6ccccc6)cc5F)CC4)CC3)cc1)=N[C@@H](C)c1nnc(C)n1-2 [III-246] | < 50 | 500 to 2500 | < 50
Cc1sc2c(c1C)C(c1ccc(N3CCC(O)(CN4CCN(c5cc(F)c([C@H]6c7ccc(O)cc7CC[C@H]6c6ccccc6)cc5F)CC4)CC3)cc1)=N[C@@H](C)c1nnc(C)n1-2 [III-247] | 50 to 500 | 50 to 500 | < 50
Cc1sc2c(c1C)C(c1ccc(N3CCC(O)(CN4CCN(c5ccc([C@@H]6c7ccc(O)cc7CC[C@@H]6c6ccc(F)cc6)c(F)c5)CC4)CC3)cc1)=N[C@@H](C)c1nnc(C)n1-2 [III-248] | < 50 | 500 to 2500 | < 50
Cc1sc2c(c1C)C(c1ccc(N3CCC(O)(CN4CCN(c5ccc([C@H]6c7ccc(O)cc7CC[C@H]6c6ccc(F)cc6)c(F)c5)CC4)CC3)cc1)=N[C@@H](C)c1nnc(C)n1-2 [III-249] | 50 to 500 | 500 to 2500 | 50 to 500
Cc1sc2c(c1C)C(c1ccc(N3CCC(O)(CN4CCN(c5ccc([C@H]6c7ccc(O)cc7CC[C@H]6c6ccc(F)cc6)cc5F)CC4)CC3)cc1)=N[C@@H](C)c1nnc(C)n1-2 [III-250, 4-((4-(2-fluoro-4-((1S,2R)-2-(4-fluorophenyl)-6-hydroxy-1,2,3,4-tetrahydronaphthalen-1-yl)phenyl)piperazin-1-yl)methyl)-1-(4-((S)-2,3,6,9-tetramethyl-6H-thieno[3,2-f][1,2,4]triazolo[4,3-a][1,4]diazepin-4-yl)phenyl)piperidin-4-ol] | 50 to 500 | 50 to 500 | 50 to 500
Cc1sc2c(c1C)C(c1ccc(N3CCC(O)(CN4CCN(c5ccc([C@@H]6c7ccc(O)cc7CC[C@@H]6c6ccc(F)cc6)cc5F)CC4)CC3)cc1)=N[C@@H](C)c1nnc(C)n1-2 [III-251, 4-((4-(2-fluoro-4-((1R,2S)-2-(4-fluorophenyl)-6-hydroxy-1,2,3,4-tetrahydronaphthalen-1-yl)phenyl)piperazin-1-yl)methyl)-1-(4-((S)-2,3,6,9-tetramethyl-6H-thieno[3,2-f][1,2,4]triazolo[4,3-a][1,4]diazepin-4-yl)phenyl)piperidin-4-ol] | < 50 | 500 to 2500 | < 50
Cc1sc2c(c1C)C(c1ccc(N3CC4(CCC(CN5CCC(c6ccc([C@H]7c8ccc(O)cc8CC[C@H]7c7ccc(F)cc7)cc6)CC5)CC4)C3)cc1)=N[C@@H](C)c1nnc(C)n1-2 [III-252] | 500 to 2500 | 500 to 2500 | 50 to 500
Cc1sc2c(c1C)C(c1ccc(N3CC4(CCC(CN5CCC(c6ccc([C@@H]7c8ccc(O)cc8CC[C@@H]7c7ccc(F)cc7)cc6)CC5)CC4)C3)cc1)=N[C@@H](C)c1nnc(C)n1-2 [III-253] | < 50 | 500 to 2500 | < 50
COc1cc([C@H]2c3ccc(O)cc3CC[C@H]2c2ccc(F)cc2)ccc1N1CCN(CC2(O)CCN(c3ccc(C4=N[C@@H](C)c5nnc(C)n5-c5sc(C)c(C)c54)cc3)CC2)CC1 [III-254] | 50 to 500 | 500 to 2500 | < 50
COc1cc([C@@H]2c3ccc(O)cc3CC[C@@H]2c2ccc(F)cc2)ccc1N1CCN(CC2(O)CCN(c3ccc(C4=N[C@@H](C)c5nnc(C)n5-c5sc(C)c(C)c54)cc3)CC2)CC1 [III-255] | 50 to 500 | 500 to 2500 | < 50

Second part, led by results:

GI50 [1] [nM] | SMILES | GI50 [2] [nM] | GI50 [3] [nM]
< 50 | Cc1sc2c(c1C)C(c1ccc(N3CCC(O)(CN4CCN(c5ccc([C@@H]6c7ccc(O)cc7CC[C@@H]6c6ccccc6)nn5)CC4)CC3)cc1)=N[C@@H](Cc1ncco1)c1nnc(C)n1-2 [III-226] | 50 to 500 | < 50
< 50 | Cc1sc2c(c1C)C(c1ccc(N3CCN(CC4CCN(c5ccc([C@@H]6c7ccc(O)cc7CC[C@@H]6c6ccccc6)cc5)CC4)CC3)cc1)=N[C@@H](Cc1nccs1)c1nnc(C)n1-2 [III-232] | > 2500 | < 50
< 50 | Cc1sc2c(c1C)C(c1ccc(N3CC(CC4(O)CCN(CC5CN(c6ccc([C@@H]7c8ccc(O)cc8CC[C@@H]7c7ccccc7)cc6)C5)CC4)C3)cc1)=N[C@@H](C)c1nnc(C)n1-2 [III-235] | 500 to 2500 | < 50
< 50 | Cc1sc2c(c1C)C(c1ccc(N3CCC(O)(CN4CCN(c5cc(F)c([C@@H]6c7ccc(O)cc7CC[C@@H]6c6ccc(F)cc6)c(F)c5)CC4)CC3)cc1)=N[C@@H](C)c1nnc(C)n1-2 [III-236] | 500 to 2500 | < 50
< 50 | Cc1sc2c(c1C)C(c1ccc(N3CC(CC4(O)CCN(CC5CN(c6ccc([C@@H]7c8ccc(O)cc8CC[C@@H]7c7ccc(F)cc7)cc6)C5)CC4)C3)cc1)=N[C@@H](C)c1nnc(C)n1-2 [III-239] | 50 to 500 | < 50
< 50 | Cc1sc2c(c1C)C(c1ccc(N3CC(CC4(O)CN(CC5CN(c6ccc([C@@H]7c8ccc(O)cc8CC[C@@H]7c7ccccc7)cc6)C5)C4)C3)cc1)=NC(C)c1nnc(C)n1-2 (stereo partly drawn) [III-240] | 50 to 500 | < 50
< 50 | Cc1sc2c(c1C)C(c1ccc(N3CC(O)(CC4CN(CC5CN(c6ccc([C@@H]7c8ccc(O)cc8CC[C@@H]7c7ccccc7)cc6)C5)C4)C3)cc1)=N[C@@H](C)c1nnc(C)n1-2 [III-241] | 50 to 500 | < 50
< 50 | Cc1sc2c(c1C)C(c1ccc(N3CC4(CC(CN5CCC(c6ccc([C@@H]7c8ccc(O)cc8CC[C@@H]7c7ccccc7)cc6)CC5)C4)C3)cc1)=N[C@@H](C)c1nnc(C)n1-2 [III-242] | 500 to 2500 | < 50
< 50 | Cc1sc2c(c1C)C(c1ccc(N3CC4(CC(CN5CCN(c6ccc([C@@H]7c8ccc(O)cc8CC[C@@H]7c7ccccc7)cc6)CC5)C4)C3)cc1)=N[C@@H](C)c1nnc(C)n1-2 [III-243] | 500 to 2500 | < 50
